Data published in publication PMC6278399, “Synthesis and Anticancer Activity Evaluation of Hydrolyzed Derivatives of Panaxnotoginseng Saponins” (Molecules, 2018).

Key:
[1] = test system: MCF-7 cells; assay: Cell cycle distribution assay, MCF-7; assay type: cell-based, human; details: MCF-7, 30 μM, 24 h; controls 0.73% (3b) and 1.69% (AD-1)
Method: MCF-7 cells treated with 30 μM of compound 3b were incubated for 24 h in CO2 incubator. AD-1 was tested as a positive control, and the experimental concentration of AD-1 was 30 μM. Cells were trypsinized, harvested, washed with PBS, and fixed with 75% ethanol overnight at −20 °C. Next, fixed cells were washed with PBS and stained for 4 h in the dark with a PI solution consisting of 50 μg/mL PI, 50 μg/mL RNase, 0.1% sodium citrate and 0.1% Triton X-100 (pH 8.0). Cell cycle distribution was determined using FACScan (Becton Dickinson, Franklin Lakes, NJ, USA).

[2] = test system: human colon cancer cells (HT-29); assay: MTT cytotoxicity assay, HT-29; assay type: cell-based; details: HT-29, MTT, 48 h
Excerpt: (§1) In the study, five cancer cell lines (human colon cancer cells (HT-29), gastric cancer cells (BGC-823), cervical cancer cells (Hela), human breast cancer cells (MCF-7), and human lung cancer cells A549)), and two normal cell lines (human gastric epithelial cells (GES-1) and human ovarian epithelial cells (IOSE144)) were used for the evaluation of biological activity. IOSE144 cells were donated by Professor Piao Huri of Yanbian University, all other cells were purchased from the American Type Culture Collection (ATCC, Manassas, VA, USA). Cells were cultured in Dulbecco’s Modified Eagle’s Medium (DMEM), supplemented with 10% heat-inactivated fetal bovine serum (FBS), 1% 100 μg/mL penicillin and 100 μg/mL streptomycin in a humidified atmosphere containing 5% CO2 at 37 °C. Cell viability was measured using the MTT assay. Cells were seeded in 96 well microtiter plates in a volume of 100 μL medium. All compounds tested were dissolved and further diluted in DMSO. After overnight incubation, cells were treated with different test concentrations or carrier solvents alone in a final volume of 100 μL with five replicates each. […] Cells were treated with compound (80, 40, 20, 10, 5 μM) for 48 h. Then, 10 μL of MTT (5 mg/mL) was added to each well and the cells were incubated at 37 °C in the dark for 4 h. Supernatants were removed and formazan crystals were dissolved in DMSO (100 μL/well). The solution was agitated for 10 min, and the absorbance was measured at 490 nm using microplate reader (imark, BIO-RAD, Hercules, CA, USA) to calculate the 50% inhibitory concentration (IC50). Ginsenoside-Rg3, panaxadiol sapogenin (PD), AD-2 (25-OH-PPD) and AD-1 (25-OCH3-PPD) were used as standard reference compounds.

[3] = MTT cytotoxicity assay, GES-1 normal cells; assay type: cell-based, human; details: human
Excerpt: as §1

[4] = test system: human lung cancer cells A549; assay: MTT cytotoxicity assay, A549; assay type: cell-based; details: 48 h
Excerpt: as §1

[5] = test system: MCF-7 cells; assay: Wound healing assay; assay type: cell-based, human; details: MCF-7, 30 μM, 24 h, serum-free
Method: MCF-7 cells were seeded in 10-cm dishes at a concentration of 1 × 10^5 cells/ mL and grown overnight. Then, a wound was created in the monolayer of cells by scratching the monolayer with a sharp tip followed by another 24 h of incubation in the presence of 30 μM of compound 3b or 0.1% DMSO under serum-free conditions, 30 μM of AD-1 as a positive control. The gap created was measured under a microscope to provide an indication of the wound healing capability of the cells.

[6] = parameters: method as in earlier work; details: stronger than ginsenoside-Rg3; cited from earlier work
[7] = test system: gastric cancer cells (BGC-823); assay: MTT cytotoxicity assay, BGC-823; assay type: cell-based, human; details: BGC-823, MTT, 48 h
Excerpt: as §1

[8] = MTT cytotoxicity assay, IOSE144 normal cells; assay type: cell-based, human; details: human
Excerpt: as §1

[9] = test system: cervical cancer cells (Hela); assay: MTT cytotoxicity assay, Hela; assay type: cell-based, human; details: 48 h
Excerpt: as §1

[10] = test system: human breast cancer cells (MCF-7); assay: MTT cytotoxicity assay, MCF-7; assay type: cell-based; details: MCF-7, MTT, 48 h
Excerpt: as §1

[11] = test system: five cancer cell lines (HT-29, BGC-823, Hela, MCF-7, A549); assay: Cytotoxic activity on five cancer cell lines (overall statement); assay type: cell-based, human; details: MTT
Excerpt: as §1

[12] = test system: IOSE144 cells; assay: Cell cycle distribution assay, IOSE144; assay type: cell-based, human; details: IOSE144, 24 h; control 1.17%
[13] = test system: human gastric epithelial cells (GES-1); assay: MTT cytotoxicity assay, GES-1 normal cells; assay type: cell-based; details: GES-1 normal cells, MTT, 48 h
Excerpt: as §1

[14] = test system: human ovarian epithelial cells (IOSE144); assay: MTT cytotoxicity assay, IOSE144 normal cells; assay type: cell-based; details: IOSE144 normal cells, MTT, 48 h
Excerpt: as §1

[15] = GES-1 gastric epithelial cells (normal cell line), GES-1 normal cells, MTT, 48 h, read-out: IC50
[16] = IOSE144 ovarian epithelial cells (normal cell line), IOSE144 normal cells, MTT, 48 h, read-out: IC50

| SMILES | IC50 ([2]; Homo sapiens) [µM] | IC50 ([4]; Homo sapiens) [µM] | IC50 ([7]; Homo sapiens) [µM] | IC50 ([9]; Homo sapiens) [µM] | IC50 ([10]; Homo sapiens, MCF7) [µM] | anticancer activity (in words) [11] | IC50 at 48 h [3] [µM] | melting point [°C] | IC50 at 48 h [8] [µM] | other results |
| --- | --- | --- | --- | --- | --- | --- | --- | --- | --- | --- |
| COC(C)(C)CCC[C@@](C)(O)C1CC[C@]2(C)C1[C@H](O)CC1[C@@]3(C)CC[C@H](O)C(C)(C)C3CC[C@]12C (stereo partly drawn) [AD-1, 25-methoxyprotopanaxadiol, reference compound] | 16.6 ± 0.25 | 34.32 ± 0.31 | 16.6 ± 0.45 | 12.99 ± 0.06 | 7.34 ± 0.19 | – | – | – | – | subG1 phase after treatment [1]: 38.45%; IC50 at 48 h [3, 15]: > 100 µM; MCF-7 cell migration (wound distance) [5]: inhibited the migration of MCF-7 cells; antitumor activity compared with ginsenoside-Rg3 [6]: 5–15 fold; IC50 at 48 h [8, 16]: > 100 µM |
| CC(C)(O)CCC[C@@](C)(O)C1CC[C@]2(C)C1[C@H](O)CC1[C@@]3(C)CC[C@H](O)C(C)(C)C3CC[C@]12C (stereo partly drawn) [AD-2, 25-hydroxyprotopanaxadiol, reference compound] | 18.7 ± 0.28 | 34.3 ± 0.87 | 44.2 ± 1.06 | 48.6 ± 1.24 | 49.6 ± 1.35 | – | – | – | – | IC50 at 48 h [3, 15]: > 100 µM; antitumor activity compared with ginsenoside-Rg3 [6]: 5–15 fold; IC50 at 48 h [8, 16]: > 100 µM |
| CC(=O)Oc1ccccc1C(=O)OC1CC2C3(C)CCC(OC(=O)c4ccccc4OC(C)=O)C(C)(C)C3CCC2(C)C2(C)CCC(C3(C)CCCC(C)(C)O3)C12 [Compound 2b, 20(R)-Pananxadiol-3β, 12β-di-yl-2′-acetylbenzoate] | 5.27 ± 0.14 | 15.47 ± 0.13 | 8.12 ± 0.25 | 16.2 ± 0.34 | 10.25 ± 0.05 | strong anticancer activity | > 100 | 238 to 240 | > 100 | – |
| COC(C)(C)CCCC(C)(O)C1CCC2(C)C1C(OC(=O)c1ccccc1O)CC1C3(C)CCC(O)C(C)(C)C3CCC12C [Compound 3a, 20(R)-25-Methoxydammarane-3β,20-diol-12β-yl-2′-hydroxybenzoate] | 10.5 ± 0.25 | 13 ± 0.25 | 15.1 ± 0.24 | 9.78 ± 0.03 | 5.34 ± 0.04 | strong anticancer activity | > 100 | 235 to 237 | > 100 | – |
| CC(=O)Oc1ccccc1C(=O)OC1CCC2(C)C(CCC3(C)C2CC(O)C2C(C4(C)CCCC(C)(C)O4)CCC23C)C1(C)C (stereo not drawn) [Compound 3b] | 10.7 ± 0.12 | 14.37 ± 0.04 | 11.2 ± 0.16 | 20.9 ± 0.54 | 2.56 ± 0.09 | strong anticancer activity | > 100 | 243 to 245 | > 100 | subG1 phase after treatment [1]: 56.95%; subG1 phase after treatment [12]: 7.58% |
| CC(C)(O)CCCC(C)(O)C1CCC2(C)C1C(OC(=O)c1ccccc1O)CC1C3(C)CCC(OC(=O)c4ccccc4O)C(C)(C)C3CCC12C [Compound 7a, 20(R)-Dammarane-20, 25-diol-3β, 12β-di-yl-2′-hydroxybenzoate] | 22.7 ± 0.46 | 8.52 ± 0.15 | 70.6 ± 2.12 | 35.2 ± 1.24 | 29.1 ± 0.69 | strong anticancer activity | > 100 | 197 to 199 | > 100 | – |
| CC(=O)Oc1ccccc1C(=O)OC1CCC2(C)C(CCC3(C)C2CC(O)C2C(C(C)(O)CCCC(C)(C)O)CCC23C)C1(C)C (stereo not drawn) [Compound 8b] | 13.25 ± 0.05 | 6.12 ± 0.1 | 10.2 ± 0.29 | 10 ± 0.53 | 14.7 ± 0.24 | strong anticancer activity | > 100 | 254 to 256 | > 100 | – |
| CC(C)=CCC[C@](C)(O)[C@H]1CC[C@]2(C)[C@@H]1[C@H](O)C[C@@H]1[C@@]3(C)CC[C@H](O[C@@H]4O[C@H](CO)[C@@H](O)[C@H](O)[C@H]4O[C@@H]4O[C@H](CO)[C@@H](O)[C@H](O)[C@H]4O)C(C)(C)[C@@H]3CC[C@]12C [Rg3, Ginsenoside-Rg3, reference compound] | – | – | – | – | – | – | – | – | – | IC50 [2]: > 100 µM; IC50 [13]: > 100 µM; IC50 [4]: > 100 µM; IC50 [7]: > 100 µM; IC50 [14]: > 100 µM; IC50 [9]: 85.2 ± 1.59 µM; IC50 [10]: 92.1 ± 2.36 µM |
